Target: T1, Recombinant cryAB(R120G) protein (Homo sapiens, UniProt P02511, R120G)
T1 sequence (P02511 1-175 R120G): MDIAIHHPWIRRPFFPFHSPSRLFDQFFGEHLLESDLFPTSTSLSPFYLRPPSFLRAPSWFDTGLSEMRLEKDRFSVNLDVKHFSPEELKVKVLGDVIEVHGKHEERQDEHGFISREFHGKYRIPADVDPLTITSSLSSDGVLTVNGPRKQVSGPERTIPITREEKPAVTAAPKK
Assay: Kinetic turbidity aggregation assay of recombinant cryAB(R120G)
Format: biochemical
Conditions: for inhibition at 25 µM: 25 μM compound, read-out: % Inhibition of Protein Aggregation, 25 μM cmpd; for inhibition at 25 µM / inhibition at 100 µM / inhibition at 400 µM: 15 μM cryAB(R120G), 42° C., absorbance at 550 nm; for inhibition at 100 µM: 100 μM compound, read-out: % Inhibition of Protein Aggregation, 100 μM cmpd; for inhibition at 400 µM: 400 μM compound, read-out: % Inhibition of Protein Aggregation, 400 μM cmpd; for IC50: inhibition of cryAB(R120G) protein aggregation
Experimental: Example A-1: Kinetic Turbidity Aggregation Assay of Recombinant cryAB(R120)
Recombinant cryAB(R120G) protein was diluted to 100 μM in assay buffer (50 mM Tris, 100 mM NaCl, 5 mM DTT, 0.01% Triton X-100, 0.05% PEG-8000). Compounds were dissolved in DMSO at 10 mM then typically diluted to 2.5 mM in DMSO and serially diluted 2-fold as necessary. To a 384-well black microplate in quadruplicate was added 81 μL assay buffer, followed by 15 μL protein solution, and 4 μL compound to give a final concentration of 15 μM cryAB(R120G) protein in 4% DMSO. […] N.D. is not determined.

Row | SMILES | inhibition at 25 µM [%] | inhibition at 100 µM [%] | inhibition at 400 µM [%] | IC50 [µM]
1 | Cc1ccc2c(c1)c(C(CNS(=O)(=O)c1ccc3cc[nH]c3c1)N(C)C)cn2C (centres unmarked) [Compound 21, N-(2-(1,5-dimethyl-1H-indol-3-yl)-2-(dimethylamino)ethyl)-1H-indole-6-sulfonamide] | 76 | 99.8 | 90.7 | –
2 | Cn1cc(C(CNS(=O)(=O)c2ccc3cc[nH]c3c2)N2CC[C@H](O)C2)c2ccccc21 (stereo partly drawn) [Compound 43, N-(2-((S)-3-hydroxypyrrolidin-1-yl)-2-(1-methyl-1H-indol-3-yl)ethyl)-1H-indole-6-sulfonamide] | 20 | 98.6 | – | –
3 | CO[C@@H]1CCN([C@H](CNS(=O)(=O)c2ccc3cc[nH]c3c2)c2cn(C)c3ccccc23)C1 [Compound 74, N-((S)-2-((R)-3-methoxypyrrolidin-1-yl)-2-(1-methyl-1H-indol-3-yl)ethyl)-1H-indole-6-sulfonamide] | 40 | 99.9 | – | –
4 | CN(C)C(CNS(=O)(=O)c1ccc2cn[nH]c2c1)c1cn(C)c2ccccc12 (centres unmarked) [Compound 7, N-(2-(dimethylamino)-2-(1-methyl-1H-indol-3-yl)ethyl)-1H-indazole-6-sulfonamide] | -21 | -32 | 56.6 | –
5 | Cn1cc(C(CNS(=O)(=O)c2ccc3cc[nH]c3c2)N2CCN(CCO)CC2)c2ccccc21 (centres unmarked) [Compound 46, N-(2-(4-(2-hydroxyethyl)piperazin-1-yl)-2-(1-methyl-1H-indol-3-yl)ethyl)-1H-indole-6-sulfonamide] | -4 | 63.1 | – | –
6 | Cn1cc(C(CNS(=O)(=O)c2ccc3[nH]ccc3c2)N2CCCC2)c2ccccc21 (centres unmarked) [Compound 26, N-(2-(1-methyl-1H-indol-3-yl)-2-(pyrrolidin-1-yl)ethyl)-1H-indole-5-sulfonamide] | -4 | 90.6 | – | –
7 | CN(C)C(CNS(=O)(=O)c1ccc2cc[nH]c2c1)c1cn(C)c2ccc(F)cc12 (centres unmarked) [Compound 20, N-(2-(dimethylamino)-2-(5-fluoro-1-methyl-1H-indol-3-yl)ethyl)-1H-indole-6-sulfonamide] | 49 | 99.2 | 93.4 | –
8 | C[C@H]1CCCN1[C@@H](CNS(=O)(=O)c1ccc2cc[nH]c2c1)c1cn(C)c2ccccc12 [Compound 65, N-((R)-2-(1-methyl-1H-indol-3-yl)-2-((S)-2-methylpyrrolidin-1-yl)ethyl)-1H-indole-6-sulfonamide] | 93 | 99.7 | – | –
9 | CN(CCO)C(CNS(=O)(=O)c1ccc2cc[nH]c2c1)c1cn(C)c2ccccc12 (centres unmarked) [Compound 32, N-(2-((2-hydroxyethyl)(methyl)amino)-2-(1-methyl-1H-indol-3-yl)ethyl)-1H-indole-6-sulfonamide] | 60 | 98.5 | – | 10 to 50
10 | Cn1cc([C@H](CNS(=O)(=O)c2ccc3cc[nH]c3c2)N2CC[C@@H](c3ccccc3)C2)c2ccccc21 [Compound 59, N-((R)-2-(1-methyl-1H-indol-3-yl)-2-((S)-3-phenylpyrrolidin-1-yl)ethyl)-1H-indole-6-sulfonamide] | 2 | 49.8 | – | –
11 | Cn1cc(C(CNS(=O)(=O)c2ccc3cc[nH]c3c2)Nc2ccccc2)c2ccccc21 (centres unmarked) [Compound 51, N-(2-(1-methyl-1H-indol-3-yl)-2-(phenylamino)ethyl)-1H-indole-6-sulfonamide] | 46 | 80.4 | – | –
12 | CN(C)C(CNS(=O)(=O)c1ccc2cc[nH]c2c1)c1ccc2[nH]ncc2c1 (centres unmarked) [Compound 3, N-(2-(dimethylamino)-2-(1H-indazol-5-yl)ethyl)-1H-indole-6-sulfonamide] | 58 | 83.7 | 99.1 | –
13 | C[C@@H]1CCCN1[C@H](CNS(=O)(=O)c1ccc2cc[nH]c2c1)c1cn(C)c2ccccc12 [Compound 53, N-((S)-2-(1-methyl-1H-indol-3-yl)-2-((R)-2-methylpyrrolidin-1-yl)ethyl)-1H-indole-6-sulfonamide] | 99.6 | 99.9 | – | ≤ 10
14 | CN(Cc1cncs1)[C@@H](CNS(=O)(=O)c1ccc2cc[nH]c2c1)c1cn(C)c2ccccc12 [Compound 87, (R)-N-(2-(methyl(thiazol-5-ylmethyl)amino)-2-(1-methyl-1H-indol-3-yl)ethyl)-1H-indole-6-sulfonamide] | 47 | 83.2 | – | –

Other lines, results leading:

Row | inhibition at 25 µM [%] | inhibition at 100 µM [%] | inhibition at 400 µM [%] | IC50 [µM] | SMILES
15 | 32 | 86.9 | – | – | COC1CCN(C(CNS(=O)(=O)c2ccc3cc[nH]c3c2)c2cn(C)c3ccccc23)CC1 (centres unmarked) [Compound 47, N-(2-(4-methoxypiperidin-1-yl)-2-(1-methyl-1H-indol-3-yl)ethyl)-1H-indole-6-sulfonamide]
16 | -8 | 66.7 | – | – | Cn1cc([C@@H](CNS(=O)(=O)c2ccc3cc[nH]c3c2)N2CC[C@@H](c3ccccc3)C2)c2ccccc21 [Compound 58, N-((S)-2-(1-methyl-1H-indol-3-yl)-2-((S)-3-phenylpyrrolidin-1-yl)ethyl)-1H-indole-6-sulfonamide]
17 | 97.7 | 99.1 | – | – | CCn1nc([C@@H](CNS(=O)(=O)c2ccc3cc[nH]c3c2)N2CCC2)c2ccccc21 [Compound 94, (R)-N-(2-(azetidin-1-yl)-2-(1-ethyl-1H-indazol-3-yl)ethyl)-1H-indole-6-sulfonamide]
18 | 92.9 | 99.1 | – | – | Cn1nc([C@@H](CNS(=O)(=O)c2ccc3cc[nH]c3c2)N2CCC2)c2ccccc21 [Compound 98, (R)-N-(2-(azetidin-1-yl)-2-(1-methyl-1H-indazol-3-yl)ethyl)-1H-indole-6-sulfonamide]
19 | 25 | 99.2 | – | – | Cc1cc2cc[nH]c2cc1S(=O)(=O)NCC(c1cn(C)c2ccccc12)N(C)C (centres unmarked) [Compound 63, N-(2-(dimethylamino)-2-(1-methyl-1H-indol-3-yl)ethyl)-5-methyl-1H-indole-6-sulfonamide]
20 | 19.5 | -38 | 18.8 | – | CN(C)C(CNS(=O)(=O)c1ccc2nc[nH]c2c1)c1cn(C)c2ccccc12 (centres unmarked) [Compound 6, N-(2-(dimethylamino)-2-(1-methyl-1H-indol-3-yl)ethyl)-1H-benzo[d]imidazole-6-sulfonamide]
21 | 63 | 97.6 | – | – | Cn1cc([C@@H](CNS(=O)(=O)c2ccc3cc[nH]c3c2)N2CCC2)c2ccccc21 [Compound 101, (S)-N-(2-(azetidin-1-yl)-2-(1-methyl-1H-indol-3-yl)ethyl)-1H-indole-6-sulfonamide]
22 | 59 | 99.7 | – | – | CC1CN(C(CNS(=O)(=O)c2ccc3cc[nH]c3c2)c2cn(C)c3ccccc23)C1 (centres unmarked) [Compound 103, N-(2-(1-methyl-1H-indol-3-yl)-2-(3-methylazetidin-1-yl)ethyl)-1H-indole-6-sulfonamide]
23 | 16 | 38 | – | – | Cn1cc([C@@H](CNS(=O)(=O)c2ccc3cc[nH]c3c2)N2CCCC2)c2ccncc21 [Compound 82, (S)-N-(2-(1-methyl-1H-pyrrolo[2,3-c]pyridin-3-yl)-2-(pyrrolidin-1-yl)ethyl)-1H-indole-6-sulfonamide]
24 | 50 | 85.8 | 67.6 | – | CN(C)C(CNS(=O)(=O)c1ccc2cc[nH]c2c1)c1ccc2cc[nH]c2n1 (centres unmarked) [Compound 15, N-(2-(dimethylamino)-2-(1H-pyrrolo[2,3-b]pyridin-6-yl)ethyl)-1H-indole-6-sulfonamide]
25 | 34 | 81.5 | 99.9 | 10 to 50 | CN(C)C(CNS(=O)(=O)c1ccc2cc[nH]c2c1)c1nn(C)c2ccccc12 (centres unmarked) [Compound 19, N-(2-(dimethylamino)-2-(1-methyl-1H-indazol-3-yl)ethyl)-1H-indole-6-sulfonamide]
26 | 47 | 99.2 | – | 10 to 50 | Cn1cc(C(CNS(=O)(=O)c2ccc3cc[nH]c3c2)Nc2ccncc2)c2ccccc21 (centres unmarked) [Compound 49, N-(2-(1-methyl-1H-indol-3-yl)-2-(pyridin-4-ylamino)ethyl)-1H-indole-6-sulfonamide]
27 | 11 | 74.9 | 81 | – | CC(C)n1cc(C(CNS(=O)(=O)c2cccc3cc[nH]c23)N(C)C)c2ccccc21 (centres unmarked) [Compound 14, N-(2-(dimethylamino)-2-(1-isopropyl-1H-indol-3-yl)ethyl)-1H-indole-7-sulfonamide]
28 | 57 | 99.8 | – | 10 to 50 | CCN(CC)C(CNS(=O)(=O)c1ccc2cc[nH]c2c1)c1cn(C)c2ccccc12 (centres unmarked) [Compound 38, N-(2-(diethylamino)-2-(1-methyl-1H-indol-3-yl)ethyl)-1H-indole-6-sulfonamide]
29 | -56 | 21.3 | – | – | Cn1nc([C@H](CNS(=O)(=O)c2ccc3cc[nH]c3c2)N2CCC2)c2ccccc21 [Compound 99, (S)-N-(2-(azetidin-1-yl)-2-(1-methyl-1H-indazol-3-yl)ethyl)-1H-indole-6-sulfonamide]

From US12637425B2, “Compounds and formulations for treating ophthalmic diseases” (Visus Therapeutics, Inc., priority 2020, dated 2026)
